# Reference: patent US20240091324A1, “GASTROINTESTINAL HEALTH COMPOSITION” (priority 2019, published 2024)
# Assays:
# [1] = system: IL-8 release from Caco-2 monolayers; test: Release of IL-8 from polarised Caco-2 monolayers stimulated with LPS, TNF-α, IFN-β; type: cell-based, human; conditions: for % increase in anti-inflammatory activity compared to equivalent formulation without bromelain (difference of means): plus 80 ug/ml bromelain
# Experimental: Inflammatory model of Caco-2 polarised monolayer stimulated with inflammatory mediators LPS, TNF-α, IFN-β: Polarised Caco-2 models were generated as previously described. When cell cultures reached a baseline TER of >1000/cm^2, the monolayers were stimulated by addition of 0.6 ml containing 50 ng/ml IFN-β, 10 μg/ml LPS and 5 ng/ml TNFα to the basolateral compartment. Immediately after the addition of the stimulation cocktail 0.25 ml of GaRP±0-80 μg/ml bromelain was applied to the apical compartment. After the 24 h incubation culture supernatants from the apical side were collected for quantitation of IL-8.
# The human colorectal adenocarcinoma cell-line C2BBe1 was grown and maintained in Dulbecco's modified Eagle's medium (DMEM) supplemented with 10% v/v fetal bovine serum (FBS), 4 mM L-glutamine, 100 U/ml penicillin and […] streptomycin. All experiments were conducted on C2BBe1 cells within 12 passages after thawing.
# In an experiment to evaluate the anti-inflammatory effect of bromelain or various GaRP formulations, 0.25 ml of test samples was applied to the apical side for 24 h, at the same time 0.6 ml of a cocktail containing 50 ng/ml IFN+10 ug/ml LPS+5 ng/ml TNF was added to the basolateral side in this model. After the 24 h incubation culture supernatants from the apical side were collected and IL-8 quantitated by ELISA.
# [2] = system: Bacteria (AIEC obtained from IBD and IBS patients); conditions: menthol was not tested in vitro; published literature; cited from earlier work
# Enterocyte [3] = conditions: menthol was not tested in vitro; published literature; cited from earlier work
# Macrophage [4] = conditions: menthol was not tested in vitro; published literature; cited from earlier work
# Enterocyte [5] = test: Observed therapeutic effective dose determined in the in vitro experiments (Table 4); type: cell-based, human
# Experimental: (§1) The observed therapeutic effective dose was determined in the in vitro experiments described herein.
# (§2) Table 4 summarises the observed therapeutic effective dose for each GaRP formulation component.
# Macrophage [6] = test: as above; type: cell-based, human
# Experimental: as §1, §2
# TNBS colitis [7] = test: TNBS colitis mouse model with and without prednisolone, change in endoscopic score day 3 to day 11 (Example 12); type: in vivo, C56/BL/6 mice
# Experimental: Colitis was induced in C56/BL/6 mice and 3 days after disease induction daily treatments commenced.
# Mice were induced with colitis by administering TNBS in the same manner as example 11. After three days the lesions were scored by endoscopy and the animals treated with i). 150 mg/kg bromelain in water, ii) 150 mg bromelain and rectally administered threonine/sodium butyrate/vitamin D3, iii). 2 mg/kg oral prednisolone or iv). 150 mg bromelain and rectally administered threonine/sodium butyrate/vitamin D3 plus 2 mg/kg oral prednisolone. Endoscopic scores were measured at day 11 and the change in endoscopic score between day 3 and day 11 calculated (FIG. 16).
# Groups are i) placebo, ii) 150 mg bromelain in water orally, iii) 150 mg bromelain & 15 mg/kg menthol orally plus GaRP rectally, iv) 150 mg bromelain & 15 mg/kg menthol orally plus GaRP and 2 mg/kg prednisolone rectally, v) 2 mg/kg prednisolone rectally, and vi) GaRP rectally. GaRP is sodium butyrate 185 mg/kg, threonine 280 mg/kg and Vitamin D3 3.84 micrograms per kg. […] The threonine, sodium butyrate and vitamin D3 were formulated and administered as a rectal gavage at the top of the colon to simulate a formulation which releases in the colon; i.e., to achieve administration to the lower intestine.
# TNBS colitis [8] = test: Histological scoring of colitis in colon sections post treatment (Example 14); type: in vivo, C56/BL/6 mice; conditions: TNBS colitis mice, 2 mg/kg prednisolone
# Source text: Colitis was induced and treated C56/BL/6 mice from examples 11 and 12 were euthanised post treatment and the colons sectioned for histopathological analysis. Each bar represents the mean histopathology score for the treatment groups. Values of the number of animals, means, standard deviations and statistical significance relative to placebo are shown in parentheses.
# In this example, the colon was fixed, stained and sectioned before being assessed by microscopy in a blinded manner. Colons were examined not only for active disease but evidence of recovery from disease and scored according to the following criteria. Scoring was performed in triplicate blinded to the scorer with a maximum score of 3 in each of 6 categories.
# • Hypervascularization (opening of blood vessels) • Presence of mononuclear cells (architecture also disappear) • Epithelial hyperplasia (elongated crypt and villi) • Epithelial injury (loss of epithelial continuity) • Presence of neutrophils • Lymphoid aggregates (scored 0-2) 0,1-2, >2
# Data were collated and analysed by student t test for significance against placebo control.
# [9] = formulation or component plus 80 ug/ml bromelain, 24 h
# [10] = without bromelain, test sample apical 24 h, IFN+LPS+TNF cocktail basolateral
smiles,measurement,setting,value
N=C(N)NCCC[C@H](N)C(=O)O [L-arginine],% inhibition of the release of IL-8 Median ± SEM,[1]; [9],73 ± 8%
same,% increase in anti-inflammatory activity compared to equivalent formulation without bromelain (difference of means),[1],67%
same,% inhibition of the release of IL-8 Median ± SEM,[1]; [10],6 ± 8%
CC1CCC(C(C)C)C(O)C1 (centres unmarked) [Menthol],"therapeutic effective dose, Target cell Bacteria (fg/cell)",[2],Not relevant
same,"therapeutic effective dose, Target cell Enterocyte (pg/cell)",Enterocyte [3],20 pg/cell
same,"therapeutic effective dose, Target cell Macrophage (pg/cell)",Macrophage [4],20 pg/cell
CCCC(=O)O [sodium butyrate],% inhibition of the release of IL-8 Median ± SEM,[1]; [9],71 ± 7%
same,% increase in anti-inflammatory activity compared to equivalent formulation without bromelain (difference of means),[1],60%
same,% inhibition of the release of IL-8 Median ± SEM,[1]; [10],11 ± 15%
same,"observed therapeutic effective dose, Target cell Enterocyte (pg/cell)",Enterocyte [5],15 pg/cell
same,"observed therapeutic effective dose, Target cell Macrophage (pg/cell)",Macrophage [6],300 pg/cell
"C[C@]12C=CC(=O)C=C1CC[C@@H]1[C@@H]2[C@@H](O)C[C@@]2(C)[C@H]1CC[C@]2(O)C(=O)CO [prednisolone, Prednisolone]",Mean reduction in endoscopic score,"TNBS colitis [7]; TNBS colitis mice, change day 3 to day 11, 2 mg/kg prednisolone",4.25
same,mean improvement in endoscopic score at day 11,"TNBS colitis [7]; daily treatment from day 3, bromelain 150 mg/kg, menthol 15 mg/kg, prednisolone 2 mg/kg where present, GaRP rectally",4.25
same,"Histological score of colitis, Mean",TNBS colitis [8],3.5
